Data from ChEMBL document CHEMBL4340568, “Synthesis of distal and proximal fleximer base analogues and evaluation in the nucleocapsid protein of HIV-1” (Bioorg Med Chem, 2019).
Activity calls are given as the source filed them. The calls are words filed in the database; no cut-off is given here.

Tests used:
[1] = tested on: Human immunodeficiency virus 1; test: Antiviral activity against HIV1; type: functional, organism-based
[2] = tested on: Human immunodeficiency virus 1; test: Binding affinity to HIV1 Nucleocapsid protein expressed in Escherichia coli BL21(DE3) pLysE at 1:1 ratio of compound/protein by 1H NMR spectroscopy

SMILES	Activity [1]	Activity [2]
Nc1nc(-c2cc(=O)[nH]c(N)n2)cc(=O)[nH]1	inactive	
Nc1ncc(-c2c[nH]cn2)c(=O)[nH]1	inactive	
Nc1ncc(-c2cnc(N)[nH]c2=O)c(=O)[nH]1	inactive	
Nc1nc(-c2c[nH]cn2)cc(=O)[nH]1	inactive	Active
